Results taken from patent US11364282B2, “Compositions, uses and methods for treatment of infertility and subfertility” (LO.LI. PHARMA S.R.L., priority 2017, dated 2022).

Experiments:
[1] = Pharmacokinetic evaluation in healthy subjects: myoinositol plus alpha lactalbumin (plasma myoinositol by GCMS); assay type: in vivo; conditions: both sexes, human, single oral dose in powder, 6 g myoinositol alone or plus 150 mg alpha lactalbumin, 15 healthy volunteers, mean
Description: The present example describes a pharmacokinetic study combining the oral administration of myoinositol and alpha lactalbumin in healthy subjects. The study aims to determine whether the combination of myoinositol and alpha lactalbumin is able to increase the plasma level of myoinositol above that observed after administering myoinositol alone. The study involved 15 healthy volunteers, 6 men and 9 women. […] Subjects received orally 6 g of myoinositol in powder form and then, after a washout period of 7 days, 6 g of myoinositol and 150 mg alpha lactalbumin, also in powder form.

[2] = test system: anovulatory PCOS patients; test: Clinical evaluation on PCOS women: ovulation assessed by ultrasound examination; assay type: in vivo, human; conditions: two sachets per day
Description: The present study aims to develop an efficacious therapy in women suffering from PCOS based on the improved absorption of inositol, e.g. myoinositol, when administered in combination with alpha lactalbumin. Specifically, while treatment of PCOS with myoinositol alone correlates to an improvement in the disease in a significant number of women, there remain women who still fail to respond to treatment with myoinositol alone. The present inventors thus sought to determine whether the higher level of myoinositol absorption observed when administering myoinositol together with alpha lactalbumin might allow successful treatment of PCOS patients who had previously not responded to treatment with myoinositol alone. If so, then the treatment of PCOS with inositol in combination with alpha lactalbumin, e.g. myoinositol in combination with alpha lactalbumin, would represent a significant therapeutic advance, allowing treatment of PCOS in previously recalcitrant cases, thereby substantially extending the therapeutic benefit of inositol, e.g. myoinositol, in treating PCOS.
The present study included 20 anovulatory PCOS patients.
Inclusion criteria were: age 20-35 years; PCOS according to Rotterdam ESHRE-ASRM consensus workshop group; anovulation and infertility >1 year. Indeed, according to Rotterdam criteria, PCOS was diagnosed performed if 2 out of the 3 following factors were fulfilled: a) oligo- or anovulation, b) clinical and/or biochemical signs of hyperandrogenism, and c) polycystic ovaries.
Patients were excluded in the event of other conditions causing ovulatory dysfunction, such as hyperprolactinemia or hypothyroidism, or androgen excess, such as adrenal hyperplasia or Cushing's syndrome, and also in the case of intake of other drugs that can potentially influence ovulation.
All the patients were given myoinositol (Inofolic®, Lo.Li. Pharma, Rome, Italy), containing 2 g myoinositol and 0.2 mg folic acid in dose of two sachets per day before meals, in order to induce ovulation.
Ovulation was assessed using ultrasound examination on days 12, 14 and 20 of the cycle. Treatment was performed for three months.
These 7 non-responders then became the subject of a second phase of the study, in which they received treatment with myoinositol in combination with alpha lactalbumin.
(§1) Specifically, myoinositol plasma levels were tested in these non-responding patients; a mean value of 17±3.5 μmol/l myoinositol was observed. Successively, a treatment with 2 g myoinositol, 0.2 mg folic acid and 50 mg alpha lactalbumin was performed in doses of two powder sachets per day before meals during the next three months. Of the 7 myoinositol resistant patients after combined treatment with myoinositol and alpha lactalbumin, 5 of the original non-responders (i.e. 71% of the original non-responders) ovulated. […]

[3] = clinical; conditions: female, human, in vivo
Procedure: as §1

[4] = test system: women affected by idiopathic infertility; test: Clinical evaluation on women affected by idiopathic infertility: biochemical pregnancy (beta hCG assay); assay type: in vivo, human; conditions: first phase: 40 women; 2 g myoinositol + 0.2 mg folic acid (Inofolic), two sachets per day, 3 months
Description: The present study aims to develop an efficacious therapy in women suffering from idiopathic infertility based on the improved absorption of inositol, e.g. myoinositol, when administered in combination with alpha lactalbumin. Specifically, while treatment of idiopathic infertility with myoinositol alone correlates to an improvement in the disease in a significant number of women, there remain women who still fail to respond to treatment with myoinositol alone. The present inventors thus sought to determine whether the higher level of myoinositol absorption observed when administering myoinositol together with alpha lactalbumin might allow successful treatment of idiopathic infertility patients who had previously not responded to treatment with myoinositol alone. If so, then the treatment of idiopathic infertility with inositol in combination with alpha lactalbumin, e.g. myoinositol in combination with alpha lactalbumin, would represent a significant therapeutic advance, allowing treatment of idiopathic infertility in previously recalcitrant cases, thereby substantially extending the therapeutic benefit of inositol, e.g. myoinositol, in treating idiopathic infertility. The present study included 40 women affected by idiopathic infertility. Inclusion criteria were: women affected by idiopathic infertility as defined below, aged 30-40 years, who were not receiving any therapy with drugs which potentially influence ovulation. Patients were given a thorough evaluation and were tested for a number of diseases, as described in the following. Testing positive for any of these diseases tested sufficed to exclude a patient as being “idiopathically infertile”. Specifically, patients were excluded from this trial in the event they were diagnosed positive for any of: hyperprolactinemia, hypothyroidism, Cushing's syndrome, adrenal hyperplasia, obesity, polycystic ovary syndrome (PCOS) or anovulation. The person skilled in the art can routinely diagnose each of the above mentioned conditions. For example, hyperprolactinemia can be diagnosed when serum prolactin levels are found to be over 20 μg/L, as e.g. described in Serri et al., CMAJ, 2003, 169(6): 575-581. Hypothyroidism can be diagnosed when the serum TSH level is found to be over 4.5 mIU/L (Garber et al., CLINICAL PRACTICE GUIDELINES FOR HYPOTHYROIDISM IN ADULTS: COSPONSORED BY THE AMERICAN ASSOCIATION OF CLINICAL ENDOCRINOLOGISTS AND THE AMERICAN THYROID ASSOCIATION; Endocrine Practice vol. 18 No. 6, 2012). Cushing's syndrome can be diagnosed according to Nieman et al., J. Clin. Endocrinol. […] The primary readout was the achievement of biochemical pregnancy as assessed using an assay (HCG Combo Card, Shanghai Chemtron Biotech Co., Ltd., catalog.no. 6011C31-4) for beta human chorionic gonadotropin (beta hCG). […]

[5] = test system: anovulatory PCOS women; conditions: 4 g/day myoinositol; cited from earlier work
[6] = first phase: 20 anovulatory PCOS patients, 2 g myoinositol + 0.2 mg folic acid (Inofolic), three months

O[C@H]1[C@H](O)[C@@H](O)[C@H](O)[C@@H](O)[C@H]1O [myoinositol]
Cmax [1]: 98 µM
Tmax [1]: 3 h
OVULATION T3 (number of patients) ([2]; 7 PCOS patients non-responsive to myoinositol, after 3 months of the treatment, combination: 2 g myoinositol, 0.2 mg folic acid, 50 mg alpha lactalbumin): 0
women resistant, did not ovulate (%) [2, 6]: 35%
women resistant, did not ovulate (number of 20) [2, 6]: 7
women who ovulated (%) [2, 6]: 65%
women who ovulated (number of 20) [2, 6]: 13
concentration at 3 months [3]: 17 ± 3.5 µM
myoinositol plasma level in patients who responded positively [3]: 38 µmol/L
MYOINOSITOL PLASMA LEVELS T3 mean (±SD) ([3]; 3 months): 17 (3.5) μmol/l
Achieving biochemical pregnancy % [4]: 52.5%
Achieving biochemical pregnancy (number) [4]: 21
Not achieving biochemical pregnancy % [4]: 47.5%
Not achieving biochemical pregnancy (number) [4]: 19
non-responders (patients who did not ovulate after treatment) [5]: 38.3%
